Reference: the CheMixHub viscosity set

Assay: xn = mol fraction of the nth substance listed

CN(C)c1ccccc1 + CCCO
viscosity [mPa·s]
Settings	303.15 K	308.15 K	313.15 K	318.15 K	323.15 K
101 kPa, x1 = 0.0503	1.685	–	–	–	–
101 kPa, x1 = 0.1049	1.625	–	–	–	–
101 kPa, x1 = 0.1825	1.552	–	–	–	–
101 kPa, x1 = 0.2575	1.482	–	–	–	–
101 kPa, x1 = 0.3423	1.413	–	–	–	–
101 kPa, x1 = 0.3929	1.377	–	–	–	–
101 kPa, x1 = 0.4121	1.365	–	–	–	–
101 kPa, x1 = 0.4703	1.328	–	–	–	–
101 kPa, x1 = 0.5523	1.29	–	–	–	–
101 kPa, x1 = 0.6229	1.265	–	–	–	–
101 kPa, x1 = 0.7221	1.242	–	–	–	–
101 kPa, x1 = 0.8096	1.225	–	–	–	–
101 kPa, x1 = 0.9023	1.198	–	–	–	–
101.33 kPa, x1 = 0.1011	1.587	1.335	1.205	1.091	0.9913
101.33 kPa, x1 = 0.1989	1.345	1.214	1.1	1.005	0.9196
101.33 kPa, x1 = 0.2994	1.249	1.134	1.033	0.9491	0.8709
101.33 kPa, x1 = 0.4015	1.194	1.09	0.9974	0.9328	0.8513
101.33 kPa, x1 = 0.4992	1.153	1.057	0.9763	0.9019	0.8384
101.33 kPa, x1 = 0.598	1.126	1.034	0.9608	0.8881	0.8254
101.33 kPa, x1 = 0.7024	1.117	1.044	0.965	0.8981	0.8357
101.33 kPa, x1 = 0.798	1.126	1.037	0.9602	0.8961	0.8364
101.33 kPa, x1 = 0.9026	1.154	1.071	0.9947	0.9284	0.8751

CC(C)(N)CO + C1CNCCN1
viscosity [mPa·s], 101 kPa
Settings	x2 = 0.02	x2 = 0.04	x2 = 0.06	x2 = 0.08	x2 = 0.1	x2 = 0.12	x2 = 0.14	x2 = 0.16	x2 = 0.18
303.15 K	95.41	91.27	86.75	83	79.54	76.81	74.64	71.81	71
313.15 K	43.72	41.54	38.97	37.34	36.06	35.06	34.1	33.76	33.69
323.15 K	24.41	23.46	22.58	21.64	20.53	19.63	18.74	17.8	17.07

CC(C)(N)CO + CCO
313.15 K, 100 kPa
Settings	viscosity [mPa·s]
x1 = 0.03	0.91
x1 = 0.054	1.05
x1 = 0.11	1.3
x1 = 0.26	2.32
